The record followed here is patent US11466044B2 (WAYNE STATE UNIVERSITY, priority 2017, dated 2022).

Values after ≈ are worked out from the molar mass of the structure shown. Read-outs that look alike come from different tables or passages of the source.

Assay [1] relates to A1555G mutant mitochondrial ribosome (human chimeric). Put plainly: in-vitro translation assay, human chimeric ribosomes, A1555G mutant mitochondrial decoding site. Type of assay: biochemical. Particulars: human mitochondrial decoding site with A1555G point mutation; read-out: IC50 Mitoch. A1555G. From the text: (§1) The antiribosomal activity of these compounds was investigated with cell-free translation assays using both wild type bacterial ribosomes and hybrid ribosomes carrying eukaryotic decoding A sites enabling the prediction of selectivity.

Assay [2] relates to wild type bacterial ribosomes. Put plainly: in-vitro translation assay, bacterial ribosomes. Particulars: Mycobacterium smegmatis ribosomes; read-out: IC50 Bacterial. The class given is biochemical.
Excerpt: as §1

For assay [3], the system named is E coli carrying specific resistance determinants. Put plainly: MIC by broth microdilution, E coli carrying specific resistance determinants. Type of assay: cell-based. The following applies: for MIC AG003 E. coli AAC(3)-II: clinical isolate AG003, AAC(3)-II; for MIC: Escherichia coli, read-out: MIC AG003 E. coli AAC(3)-II. (In general: Dilution methods test growth across graded concentrations, often in twofold steps.)

The subject of the next assay is MRSA. In words: MIC by broth microdilution, MRSA isolates. The following applies: for MIC: Staphylococcus aureus, MRSA. The class given is cell-based.
Assay [4] relates to rabbit reticulocyte ribosomes. Put plainly: in-vitro translation assay, rabbit reticulocyte ribosomes. Type of assay: biochemical. The following applies: mammalian cytosolic ribosomes (rabbit).
In assay [5] the test system is cytosolic ribosome (human chimeric). Type of assay: biochemical. Particulars: ribosomes with a human cytosolic decoding site; read-out: IC50 Cytosolic.
Excerpt: as §1

Assay [6] relates to mitochondrial ribosome (human chimeric). The class given is biochemical. The following applies: ribosomes with a human mitochondrial decoding site; read-out: IC50 Mitoch.
Excerpt: as §1

In another assay the test system is E coli wild type. In words: MIC by broth microdilution, wild type E coli. Particulars: for MIC: Escherichia coli. The class given is cell-based.
For another assay, the system named is P aeruginosa. In words: MIC by broth microdilution, P aeruginosa isolates. The class given is cell-based, Pseudomonas aeruginosa. Particulars: for MIC: Pseudomonas aeruginosa.
[7] abbreviates: clinical isolate AG039, AAC(6′)-I ANT(4′)-I.
The mark [8] stands for this setting: clinical isolate AG042, AAC(6′)-I ANT(4′)-I APH(2′).
Setting [9] is: clinical isolate AG031, APH(3′)-II.
Where [10] appears, read: clinical isolate AG032, APH(3′)-II.
The mark [11] stands for this setting: clinical isolate AG038, read-out: MIC AG038 MRSA.
The mark [12] stands for this setting: clinical isolate AG039, AAC(6′)-I ANT(4′)-I, read-out: MIC AG039 MRSA AAC(6′)-I ANT(4′)-I.
[13] abbreviates: clinical isolate AG042, AAC(6′)-I ANT(4′)-I APH(2′), read-out: MIC AG042 MRSA AAC(6′)-I ANT(4′)-I APH(2′).
The mark [14] stands for this setting: clinical isolate AG001, WT, read-out: MIC AG001 E. coli WT.
Setting [15] is: clinical isolate AG055, WT, read-out: MIC AG055 E. coli WT.
The mark [16] stands for this setting: clinical isolate AG031, APH(3′)-II, read-out: MIC AG031 P. aer. APH(3′)-II.
[17] abbreviates: clinical isolate AG032, APH(3′)-II, read-out: MIC AG032 P. aer. APH(3′)-II.

On to `NC[C@H]1O[C@H](O[C@H]2[C@H](O[C@@H]3O[C@H](CNC=O)[C@@H](O)[C@H]3O)[C@@H](O)[C@H](N)C[C@@H]2N)[C@H](N)[C@@H](O)[C@@H]1O` [DC130], for which the half-inhibitory concentration (IC50) (commonly the concentration needed to halve the response being measured) in assay [1] was found to be 190 µM; in assay [2], 0.24 µM; in [4] it was 152 µM; in assay [5], 359 µM; in assay [6] it was 364 µM. Further, the “MIC AG003 E. coli AAC(3)-II” value in assay [3] is 32 µg/mL (≈ 66.5 µM). Further, the “MIC AG038 MRSA” value in the assay with MRSA (clinical isolate AG038) stood at 64 µg/mL (≈ 133 µM). Further, the “MIC AG039 MRSA AAC(6′)-I ANT(4′)-I” value against MRSA (setting [7]) is greater than 128 µg/mL. Moreover, the “MIC AG042 MRSA AAC(6′)-I ANT(4′)-I APH(2′)” value against MRSA (setting [8]) is greater than 128 µg/mL. Besides, in the assay with MRSA (clinical isolate AG044), the “MIC AG044 MRSA” value came to 128 µg/mL (≈ 266 µM). Also, the “MIC AG001 E. coli WT” value with E coli wild type (clinical isolate AG001, WT) came to 32 µg/mL (≈ 66.5 µM). Also, the “MIC AG055 E. coli WT” value in the assay with E coli wild type (clinical isolate AG055, WT) was determined as 32 µg/mL (≈ 66.5 µM). The “MIC AG031 P. aer. APH(3′)-II” value in the assay on P aeruginosa (setting [9]) was greater than 128 µg/mL. Further, the “MIC AG032 P. aer. APH(3′)-II” value against P aeruginosa (setting [10]) was greater than 128 µg/mL.
Turning to `CC(C)(O)[C@H]1O[C@H](O[C@H]2[C@H](O[C@@H]3O[C@H](CO)[C@@H](O[C@H]4O[C@@H](CN)[C@@H](O)[C@H](O)[C@H]4N)[C@H]3O)[C@@H](O)[C@H](N)C[C@@H]2N)[C@H](N)[C@@H](O)[C@@H]1O` [DC159], the IC50 was found to be 87 µM in assay [1]; 0.04 µM in assay [2]; 15 µM in assay [4]; 30 µM in [5]; 211 µM in assay [6]. Also, the “MIC AG036 ANT(4′,4′′)” value in assay [3] (E. coli strain AG036, ANT(4′,4′′)) lay in the range of 16 to 32 µg/mL. Besides, the “MIC AG037 APH(3′)-III” value in assay [3] (E. coli strain AG037, APH(3′)-III) was greater than 64 µg/mL. In assay [3] (E. coli strain AG103, armA), the “MIC AG103 armA” value fell in the range of 4 to 8 µg/mL. In addition, in assay [3] (E. coli strain pH421, APH(3)-I), the “MIC pH421 APH(3)-I” value is reported as greater than 64 μg/ml. Further, the “MIC pH422 APH(3′)-II” value in [3] (E. coli strain pH422, APH(3′)-II) is greater than 64 μg/ml. In addition, the “MIC pH423 APH(3′)-VI” value in [3] (E. coli strain pH423, APH(3′)-VI) is given as 8 μg/ml. For the same compound, in assay [3] (E. coli strain pH432, ANT(4′)), the “MIC pH432 ANT(4′)” value is recorded as 2 μg/ml. Also, the “MIC AG003 E. coli AAC(3)-II” value in assay [3] was found to be 8 µg/mL (≈ 12.4 µM). The “MIC AG038 MRSA” value in the assay on MRSA (clinical isolate AG038) was 8 to 16 µg/mL. Besides, in the assay on MRSA (setting [7]), the “MIC AG039 MRSA AAC(6′)-I ANT(4′)-I” value was greater than 128 µg/mL. Moreover, the “MIC AG042 MRSA AAC(6′)-I ANT(4′)-I APH(2′)” value in the assay with MRSA (setting [8]) was greater than 128 µg/mL. Further, the “MIC AG044 MRSA” value with MRSA (clinical isolate AG044) fell in the range of 4 to 8 µg/mL. Further, in the assay with E coli wild type (E. coli strain pH430, WT), the “MIC pH430 WT” value was 1-2 μg/ml. Further, the “MIC AG001 E. coli WT” value against E coli wild type (clinical isolate AG001, WT) stood at 8 µg/mL (≈ 12.4 µM). Also, the “MIC AG055 E. coli WT” value in the assay with E coli wild type (clinical isolate AG055, WT) was found to be 8 µg/mL (≈ 12.4 µM). Besides, in the assay with P aeruginosa (setting [9]), the “MIC AG031 P. aer. APH(3′)-II” value was greater than 128 µg/mL. In addition, the “MIC AG032 P. aer. APH(3′)-II” value against P aeruginosa (setting [10]) was greater than 128 µg/mL.
Consider `NCC1OC(OC2C(CO)OC(OC3C(O)C(N)CC(N)C3OC3OC(CN)C(O)C(O)C3NC=O)C2O)C(N)C(O)C1O` (stereo not drawn) [DC-182], for which the IC50 in assay [1] was 13 µM; in assay [2], 0.12 µM; in assay [4], 110 µM; in assay [5], 127 µM; in assay [6] it was 54 µM. The minimum inhibitory concentration (MIC) (usually the lowest concentration found to suppress growth) was 4 to 8 µg/mL (≈ 6.22 to 12.4 µM) in [3]; 2 to 4 µg/mL (≈ 3.11 to 6.22 µM) with MRSA (setting [11]); greater than 32 µg/mL in the assay on MRSA (setting [12]); greater than 32 µg/mL with MRSA (setting [13]); 4 to 8 µg/mL (≈ 6.22 to 12.4 µM) in the assay with E coli wild type (setting [14]); 2 µg/mL (≈ 3.11 µM) in the assay with E coli wild type (setting [15]). The minimal inhibitory concentration (MIC) in the assay on P aeruginosa (setting [16]) and with P aeruginosa (setting [17]) was greater than 32 µg/mL each time.
For the compound `CNC1C(OC2C(N)CC(N)C(O)C2OC2OC(CO)C(O)C2O)OC(CN)C(O)C1O` (stereo not drawn) [DC-100], the IC50 is 224 µM in assay [1]; 0.52 µM in assay [2]; 90 µM in [4]; 372 µM in assay [5]; 457 µM in assay [6]. The minimal inhibitory concentration (MIC) is 64 µg/mL (≈ 137 µM) in assay [3]; 64 to 128 µg/mL (≈ 137 to 273 µM) in the assay with MRSA (setting [11]); greater than 128 µg/mL with MRSA (setting [12]); greater than 128 µg/mL in the assay on MRSA (setting [13]); 128 µg/mL (≈ 273 µM) in the assay on MRSA (clinical isolate AG044, read-out: MIC AG044 MRSA); 64 to 128 µg/mL (≈ 137 to 273 µM) with E coli wild type (setting [14]). The MIC in the assay with E coli wild type (setting [15]) is 64 to 128 µg/mL (≈ 137 to 273 µM); with P aeruginosa (setting [16]) it was greater than 128 µg/mL; with P aeruginosa (setting [17]), greater than 128 µg/mL.
